In ChEMBL document CHEMBL1157918, “The development and SAR of pyrrolidine carboxamide 11beta-HSD1 inhibitors” (Bioorg Med Chem Lett, 2010):

Columns and labels:
in vitro = details: human, liver microsomes
Description: Intrinsic clearance in human liver microsomes

Mus musculus [1] = organism: Mus musculus; assay: animal or person; details: C57BL, Plasma, po, read-out: INH
Description: Inhibition of 11-beta-HSD1 in C57BL mouse assessed as reduction of plasma cortisol level at 1 mg/kg, po administered 30 mins before cortisone challenge measured after 60 mins by ELISA relative to control

Mus musculus [2] = organism: Mus musculus; assay: animal or person; details: C57BL, Plasma, po, read-out: INH; remark: listed apart in the source
Description: Inhibition of 11-beta-HSD1 in C57BL mouse assessed as reduction of plasma cortisol level at 3 mg/kg, po administered 30 mins before cortisone challenge measured after 60 mins by ELISA relative to control

Mus musculus [3] = organism: Mus musculus; assay: animal or person; details: C57BL, Plasma, po, read-out: INH; remark: listed apart in the source
Description: Inhibition of 11-beta-HSD1 in C57BL mouse assessed as reduction of plasma cortisol level at 10 mg/kg, po administered 30 mins before cortisone challenge measured after 60 mins by ELISA relative to control

Mus musculus [4] = organism: Mus musculus; assay: animal or person; details: C57BL, Plasma, po, read-out: INH; remark: listed apart in the source
Description: Inhibition of 11-beta-HSD1 in C57BL mouse assessed as reduction of plasma cortisol level at 30 mg/kg, po administered 30 mins before cortisone challenge measured after 60 mins by ELISA relative to control

Mus musculus [5] = organism: Mus musculus; assay: animal or person; details: C57BL, Plasma, po, read-out: INH; remark: listed apart in the source
Description: Inhibition of 11-beta-HSD1 in C57BL mouse assessed as reduction of plasma cortisol level at 100 mg/kg, po administered 30 mins before cortisone challenge measured after 60 mins by ELISA relative to control

CN1CCC[C@@H]1C(=O)NC1C2CC3CC(C2)CC1C3 (some centres not stated)
CLint scaled (in vitro): 22.2 mL/min/kg

CCCN1CCC[C@@H]1C(=O)NC1C2CC3CC(C2)CC1C3 (some centres not stated)
CLint scaled (in vitro): 93.3 mL/min/kg

CCN1CCC[C@@H]1C(=O)NC1C2CC3CC(C2)CC1C3 (some centres not stated)
CLint scaled (in vitro): 43.9 mL/min/kg | inhibition in vivo at 1 mg/kg (Mus musculus [1]): 52% | inhibition in vivo at 3 mg/kg (Mus musculus [2]): 46% | inhibition in vivo at 10 mg/kg (Mus musculus [3]): 23% | inhibition in vivo at 30 mg/kg (Mus musculus [4]): 20% | inhibition in vivo at 100 mg/kg (Mus musculus [5]): 18%

O=C(NC1C2CC3CC(C2)CC1C3)[C@H]1CCCN1c1ccccn1 (some centres not stated)
CLint scaled (in vitro): 79.2 mL/min/kg

O=C(NC1C2CC3CC(C2)CC1C3)[C@H]1CCCN1CC1CCOCC1 (some centres not stated)
CLint scaled (in vitro): 20.3 mL/min/kg

O=C(NC1C2CC3CC(C2)CC1C3)[C@H]1CCCN1CC1(O)CCCC1 (some centres not stated)
CLint scaled (in vitro): 86.2 mL/min/kg

O=C(NC1C2CC3CC(C2)CC1C3)[C@H]1CCCN1CC1(O)CCCCC1 (some centres not stated)
CLint scaled (in vitro): 64.6 mL/min/kg

O=C(NC1C2CC3CC(C2)CC1C3)[C@H]1CCCN1CC1CCCC1 (some centres not stated)
CLint scaled (in vitro): 75.3 mL/min/kg

O=C(NC1C2CC3CC(C2)CC1C3)[C@H]1CCCN1CC1CCCCC1 (some centres not stated)
CLint scaled (in vitro): 62.8 mL/min/kg

CC(C)CN1CCC[C@@H]1C(=O)NC1C2CC3CC(C2)CC1C3 (some centres not stated)
CLint scaled (in vitro): 79.3 mL/min/kg

O=C(NC1C2CC3CC(C2)CC1C3)[C@H]1CCCN1CC1CCC1 (some centres not stated)
CLint scaled (in vitro): 85.8 mL/min/kg

N#Cc1ccc(CN2CCC[C@@H]2C(=O)NC2C3CC4CC(C3)CC2C4)cc1 (some centres not stated)
CLint scaled (in vitro): 73.2 mL/min/kg
